Results reported in article PMC8882611, “Corylus avellana: A Source of Diarylheptanoids With α-Glucosidase Inhibitory Activity Evaluated by in vitro and in silico Studies” (Frontiers in Plant Science, 2022).

Key:
[1] = molecular target: α-glucosidase enzyme (from Saccharomyces cerevisiae) (Saccharomyces cerevisiae, UniProt P53341); assay: biochemical; details: substrate 4-nitrophenyl α-D-glucopyranoside, pH 7.0, 37°C; samples 200, 300, 400 μM; mean ± SD of three experiments; read-out: α-Glucosidase inhibitory activity IC50 ± SD
α-glucosidase enzyme (from Saccharomyces cerevisiae), sequence (P53341 whole entry): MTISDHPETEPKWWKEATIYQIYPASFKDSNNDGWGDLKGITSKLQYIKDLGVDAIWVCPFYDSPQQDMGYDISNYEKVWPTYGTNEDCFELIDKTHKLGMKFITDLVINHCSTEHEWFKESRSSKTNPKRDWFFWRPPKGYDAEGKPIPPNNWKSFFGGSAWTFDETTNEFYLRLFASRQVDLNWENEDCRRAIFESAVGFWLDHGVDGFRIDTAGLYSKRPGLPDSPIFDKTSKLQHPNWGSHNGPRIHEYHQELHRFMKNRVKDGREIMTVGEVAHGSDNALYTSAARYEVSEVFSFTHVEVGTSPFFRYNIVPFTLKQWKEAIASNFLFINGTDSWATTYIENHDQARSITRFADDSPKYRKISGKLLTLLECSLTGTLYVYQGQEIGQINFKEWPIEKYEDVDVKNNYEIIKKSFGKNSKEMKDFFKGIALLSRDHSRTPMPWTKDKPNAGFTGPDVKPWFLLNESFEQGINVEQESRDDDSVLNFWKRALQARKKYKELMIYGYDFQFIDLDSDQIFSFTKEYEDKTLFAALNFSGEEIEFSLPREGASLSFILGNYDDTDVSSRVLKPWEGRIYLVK
Method: α-Glucosidase inhibitory activity was evaluated as previously reported ([Kilinc et al., 2020]). Briefly, 0.1 M phosphate buffer at pH 7.0 (150 μL) was added to each well; successively 10 μL of samples, dissolved in MeOH at different concentrations (200, 300, and 400 μM) were added; at this point, the reaction was initiated by the addition of 15 μL of the α-glucosidase enzyme (from Saccharomyces cerevisiae) (2 U/mL) in each well, and the plate was incubated for 5 min at 37°C; after 5 min 75 μL of the substrate (2.5 mM) 4-nitrophenyl α-D-glucopyranoside were added, and successively the plate was incubated for 10 min at 37°C. The absorbance was measured at 405 nm before (T0′) and after the incubation with the enzyme (T10′). […] Negative control absorbance (phosphate buffer in place of the sample) was also recorded. Inhibition of the enzyme was calculated, and the results were expressed as IC50 values. All experiments were carried out in triplicate. IC50 values were calculated through non-linear regression using Graphpad Prism 5 Software and expressed as means ± SD (standard deviation). They were considered statistically significant with values of p < 0.05.

[2] = tested on: Bacillus cereus, Staphylococcus aureus, Escherichia coli and Pseudomonas aeruginosa; parameters: method as in Cerulli et al., 2017; details: 40 μg/disk; tetracycline as positive control; ref Cerulli et al., 2017; cited from earlier work
[3] = tested on: H2O2– and H2O2/Fe2+-induced lipid peroxidation; parameters: method as in Masullo et al., 2015b; details: 10 μM; TBARS assay; ref Masullo et al., 2015b; cited from earlier work
[4] = tested on: plasma proteins; parameters: method as in Cerulli et al., 2021; Masullo et al., 2021; details: 10 μM, ref Cerulli et al., 2021, Masullo et al.; cited from earlier work

Structure (SMILES)	IC50 [1] [µM]	further results
O=C1/C=C/CCc2ccc(O)c(c2)-c2cc(ccc2O)CC1 [Alnusone (21), Alnusone]	154 ± 8.3	–
O=C1CCc2ccc(O)c(c2)-c2cc(ccc2O)C[C@H](O)[C@H](O)[C@H]1O [Carpinontriol B (24), Carpinontriol B]	107 ± 6.1	zones of inhibition [2]: completely comparable to those obtained with tetracycline
COc1c2cc(c(OC)c1O)Oc1ccc(cc1)CCC(=O)CC/C=C/2 [Giffonin A (1), Giffonin A]	184 ± 6.9	–
COc1c2cc(c(OC)c1O)Oc1ccc(cc1)[C@@H](O)CC(=O)CC/C=C/2 [Giffonin B (2), Giffonin B]	164 ± 5.2	–
COc1c2cc(c(OC)c1O)Oc1ccc(cc1)CC[C@H](O)CC/C=C\2 [Giffonin C (3), Giffonin C]	105 ± 6.9	–
COc1c2cc(c(OC)c1O)Oc1ccc(cc1)CCC(=O)CC/C=C\2 [Giffonin D (4), Giffonin D]	108 ± 6.1	reduction of H2O2-induced lipid peroxidation [3]: more than 60%; reduction of H2O2/Fe2+-induced lipid peroxidation [3]: > 50%
COc1c2cc(c(OC)c1O)Oc1ccc(cc1)CCCC[C@H](O)/C=C\2 [Giffonin E (5), Giffonin E]	167 ± 4.6	–
COc1c2cc(c(OC)c1O)Oc1ccc(cc1)CCC(=O)C[C@H](O)/C=C\2 [Giffonin F (6), Giffonin F]	146 ± 4.3	–
COc1c2cc(c(OC)c1O)Oc1ccc(cc1)CC[C@H](O)/C=C/C=C\2 [Giffonin G (7), Giffonin G]	108 ± 9.2	reduction of oxidation of thiol groups and carbonylation in plasma proteins [4]: most active compounds
COc1c(O)cc2cc1Oc1ccc(cc1)CC[C@H](O)/C=C/C=C\2 [Giffonin H (8), Giffonin H]	109 ± 2.9	reduction of H2O2-induced lipid peroxidation [3]: more than 60%; reduction of H2O2/Fe2+-induced lipid peroxidation [3]: > 50%
O=C1C=CCCc2ccc(OC3OC(CO)C(O)C(O)C3O)c(c2)-c2cc(ccc2OC2OCC(O)C(O)C2O)CC1 (stereo not drawn) [Giffonin I (9), Giffonin I]	105 ± 4.9	–
COc1c2cc(c(OC)c1O)Oc1ccc(cc1)[C@@H](O)C[C@@H](O)CC/C=C\2 [Giffonin J (10), Giffonin J]	56.6 ± 9.6	–
COc1c2cc(c(OC)c1O)Oc1ccc(cc1)[C@@H](O)C[C@@H](O)/C=C/C=C\2 [Giffonin K (11), Giffonin K]	70 ± 3.1	reduction of oxidation of thiol groups and carbonylation in plasma proteins [4]: most active compounds
Oc1ccc2cc1-c1cc(ccc1O)C[C@H](O)[C@@H](O)[C@H](O)C[C@@H](O)C2 [Giffonin L (12), Giffonin L]	172 ± 8.9	–
O=C1CCc2ccc(O)c(c2)-c2cc(ccc2O)C[C@H](O)C[C@@H]1O [Giffonin M (13), Giffonin M]	114 ± 9.7	–
O=C1CCc2ccc(O)c(c2)-c2cc(ccc2O)CC(OC2OC(CO)C(O)C(O)C2O)CC1O (stereo not drawn) [Giffonin N (14), Giffonin N]	128 ± 11.3	–
O=C1C[C@@H](O)Cc2ccc(O)c(c2)-c2cc(ccc2O)C[C@H](O)[C@H]1O [Giffonin O (15), Giffonin O]	124 ± 11.1	–
Oc1ccc2cc1-c1cc(ccc1O)C[C@H](O)[C@H](O)C(O)[C@@H](O)[C@H](O)C2 (stereo partly drawn) [Giffonin P (16), Giffonin P]	55.3 ± 7.7	–
O=C1/C=C/CCc2ccc(O)c(c2)Oc2ccc(cc2)CC1 [Giffonin Q (18), Giffonin Q]	127 ± 5.9	–
O=C1/C=C/C=C/c2ccc(O)c(c2)Oc2ccc(cc2)CC1 [Giffonin R (19), Giffonin R]	128 ± 6.1	–
COc1cc2cc(c1O)Oc1ccc(cc1)CCC(=O)/C=C/C=C/2 [Giffonin S (20), Giffonin S]	126 ± 8.9	–
O=C1CCc2ccc(OC3OC(CO)C(O)C(O)C3O)c(c2)-c2cc(ccc2O)CC(O)C(O)C1O (stereo not drawn) [Giffonin T (22), Giffonin T]	131 ± 6.1	–
O=C1Cc2ccc(O)c(c2)-c2cc(ccc2O)C[C@@H](O)[C@@H](O)[C@@H](O)[C@H]1O [Giffonin U (23), Giffonin U]	175 ± 9.8	zones of inhibition [2]: completely comparable to those obtained with tetracycline
O=C1CCc2ccc(O)c(c2)-c2cc(ccc2O)CC[C@@H](O)[C@H]1O [Giffonin V (25), Giffonin V]	123 ± 4.4	–
O=C(CCc1ccc(O)c(O)c1)C[C@H](CCc1ccc(O)c(O)c1)O[C@@H]1OC[C@@H](O)[C@H](O)[C@H]1O [Oregonin (17), Oregonin]	144 ± 7.2	–
